Measurements reported in the NIST ThermoML archive (doi:10.1016/j.jct.2016.10.033).
± gives the expanded uncertainty stated by the source.

Assay: xn = mol fraction of the nth substance listed
Conditions: 103 kPa, Liquid, Vibrating tube method

Work on `C=C[Si](C)(OCC)OCC` [methylvinyldiethoxysilane] + CO[Si](C)(OC)c1ccccc1 yielded a mass density (298.15 K, x2 = 0) of 856.25 ± 0.41 kg/m3, a mass density (298.15 K, x2 = 0.05) of 863.72 ± 0.41 kg/m3 and a mass density (298.15 K, x2 = 0.1001) of 871.17 ± 0.41 kg/m3. For the same compound, the mass density (298.15 K, x2 = 0.1499) was 878.58 ± 0.41 kg/m3, the mass density (298.15 K, x2 = 0.2001) was 885.98 ± 0.41 kg/m3 and the mass density (298.15 K, x2 = 0.2501) was 893.45 ± 0.41 kg/m3. It also gave a mass density (298.15 K, x2 = 0.3) of 900.68 ± 0.41 kg/m3, a mass density (298.15 K, x2 = 0.3499) of 907.99 ± 0.41 kg/m3 and a mass density (298.15 K, x2 = 0.4) of 915.28 ± 0.41 kg/m3. It also gave a mass density (298.15 K, x2 = 0.4501) of 922.58 ± 0.41 kg/m3, a mass density (298.15 K, x2 = 0.5) of 929.75 ± 0.41 kg/m3 and a mass density (298.15 K, x2 = 0.5499) of 937 ± 0.41 kg/m3. For the same compound, the mass density (298.15 K, x2 = 0.6) was 944.21 ± 0.41 kg/m3, the mass density (298.15 K, x2 = 0.65) was 951.55 ± 0.41 kg/m3 and the mass density (298.15 K, x2 = 0.6999) was 958.48 ± 0.41 kg/m3. For the same compound, the mass density (298.15 K, x2 = 0.75) was 965.63 ± 0.41 kg/m3, the mass density (298.15 K, x2 = 0.7999) was 972.72 ± 0.41 kg/m3 and the mass density (298.15 K, x2 = 0.85) was 979.76 ± 0.41 kg/m3. It also gave a mass density (298.15 K, x2 = 0.8998) of 987.03 ± 0.41 kg/m3, a mass density (298.15 K, x2 = 0.9499) of 993.78 ± 0.41 kg/m3 and a mass density (303.15 K, x2 = 0) of 851.09 ± 0.41 kg/m3. It also gave a mass density (303.15 K, x2 = 0.05) of 858.61 ± 0.41 kg/m3, a mass density (303.15 K, x2 = 0.1001) of 866.08 ± 0.41 kg/m3 and a mass density (303.15 K, x2 = 0.1499) of 873.53 ± 0.41 kg/m3. For the same compound, the mass density (303.15 K, x2 = 0.2001) was 880.95 ± 0.41 kg/m3, the mass density (303.15 K, x2 = 0.2501) was 888.45 ± 0.41 kg/m3 and the mass density (303.15 K, x2 = 0.3) was 895.69 ± 0.41 kg/m3. For the same compound, the mass density (303.15 K, x2 = 0.3499) was 903.05 ± 0.41 kg/m3, the mass density (303.15 K, x2 = 0.4) was 910.36 ± 0.41 kg/m3 and the mass density (303.15 K, x2 = 0.4501) was 917.68 ± 0.41 kg/m3. The mass density (303.15 K, x2 = 0.5) was 924.84 ± 0.41 kg/m3, the mass density (303.15 K, x2 = 0.5499) was 932.14 ± 0.41 kg/m3 and the mass density (303.15 K, x2 = 0.6) was 939.4 ± 0.41 kg/m3. The mass density (303.15 K, x2 = 0.65) was 946.75 ± 0.41 kg/m3, the mass density (303.15 K, x2 = 0.6999) was 953.71 ± 0.41 kg/m3 and the mass density (303.15 K, x2 = 0.75) was 960.89 ± 0.41 kg/m3. For the same compound, the mass density (303.15 K, x2 = 0.7999) was 968 ± 0.41 kg/m3, the mass density (303.15 K, x2 = 0.85) was 975.05 ± 0.41 kg/m3 and the mass density (303.15 K, x2 = 0.8998) was 982.34 ± 0.41 kg/m3. It also gave a mass density (303.15 K, x2 = 0.9499) of 989.11 ± 0.41 kg/m3, a mass density (308.15 K, x2 = 0) of 845.89 ± 0.41 kg/m3 and a mass density (308.15 K, x2 = 0.05) of 853.46 ± 0.41 kg/m3. For the same compound, the mass density (308.15 K, x2 = 0.1001) was 860.96 ± 0.41 kg/m3, the mass density (308.15 K, x2 = 0.1499) was 868.43 ± 0.41 kg/m3 and the mass density (308.15 K, x2 = 0.2001) was 875.9 ± 0.41 kg/m3. It also gave a mass density (308.15 K, x2 = 0.2501) of 883.43 ± 0.41 kg/m3, a mass density (308.15 K, x2 = 0.3) of 890.69 ± 0.41 kg/m3 and a mass density (308.15 K, x2 = 0.3499) of 898.08 ± 0.41 kg/m3. It also gave a mass density (308.15 K, x2 = 0.4) of 905.41 ± 0.41 kg/m3, a mass density (308.15 K, x2 = 0.4501) of 912.77 ± 0.41 kg/m3 and a mass density (308.15 K, x2 = 0.5) of 919.93 ± 0.41 kg/m3. For the same compound, the mass density (308.15 K, x2 = 0.5499) was 927.28 ± 0.41 kg/m3, the mass density (308.15 K, x2 = 0.6) was 934.57 ± 0.41 kg/m3 and the mass density (308.15 K, x2 = 0.65) was 941.94 ± 0.41 kg/m3. The mass density (308.15 K, x2 = 0.6999) was 948.92 ± 0.41 kg/m3, the mass density (308.15 K, x2 = 0.75) was 956.12 ± 0.41 kg/m3 and the mass density (308.15 K, x2 = 0.7999) was 963.25 ± 0.41 kg/m3. It also gave a mass density (308.15 K, x2 = 0.85) of 970.33 ± 0.41 kg/m3, a mass density (308.15 K, x2 = 0.8998) of 977.65 ± 0.41 kg/m3 and a mass density (308.15 K, x2 = 0.9499) of 984.43 ± 0.41 kg/m3. It also gave a mass density (313.15 K, x2 = 0) of 840.71 ± 0.41 kg/m3, a mass density (313.15 K, x2 = 0.05) of 848.28 ± 0.41 kg/m3 and a mass density (313.15 K, x2 = 0.1001) of 855.82 ± 0.41 kg/m3. It also gave a mass density (313.15 K, x2 = 0.1499) of 863.33 ± 0.41 kg/m3, a mass density (313.15 K, x2 = 0.2001) of 870.83 ± 0.41 kg/m3 and a mass density (313.15 K, x2 = 0.2501) of 878.38 ± 0.41 kg/m3. The mass density (313.15 K, x2 = 0.3) was 885.67 ± 0.41 kg/m3, the mass density (313.15 K, x2 = 0.3499) was 893.09 ± 0.41 kg/m3 and the mass density (313.15 K, x2 = 0.4) was 900.45 ± 0.41 kg/m3. It also gave a mass density (313.15 K, x2 = 0.4501) of 907.84 ± 0.41 kg/m3, a mass density (313.15 K, x2 = 0.5) of 915 ± 0.41 kg/m3 and a mass density (313.15 K, x2 = 0.5499) of 922.39 ± 0.41 kg/m3. For the same compound, the mass density (313.15 K, x2 = 0.6) was 929.72 ± 0.41 kg/m3, the mass density (313.15 K, x2 = 0.65) was 937.11 ± 0.41 kg/m3 and the mass density (313.15 K, x2 = 0.6999) was 944.12 ± 0.41 kg/m3. For the same compound, the mass density (313.15 K, x2 = 0.75) was 951.35 ± 0.41 kg/m3, the mass density (313.15 K, x2 = 0.7999) was 958.51 ± 0.41 kg/m3 and the mass density (313.15 K, x2 = 0.85) was 965.59 ± 0.41 kg/m3. For the same compound, the mass density (313.15 K, x2 = 0.8998) was 972.94 ± 0.41 kg/m3, the mass density (313.15 K, x2 = 0.9499) was 979.74 ± 0.41 kg/m3 and the mass density (318.15 K, x2 = 0) was 835.44 ± 0.41 kg/m3. The mass density (318.15 K, x2 = 0.05) was 843.09 ± 0.41 kg/m3, the mass density (318.15 K, x2 = 0.1001) was 850.66 ± 0.41 kg/m3 and the mass density (318.15 K, x2 = 0.1499) was 858.2 ± 0.41 kg/m3. It also gave a mass density (318.15 K, x2 = 0.2001) of 865.74 ± 0.41 kg/m3, a mass density (318.15 K, x2 = 0.2501) of 873.33 ± 0.41 kg/m3 and a mass density (318.15 K, x2 = 0.3) of 880.64 ± 0.41 kg/m3. It also gave a mass density (318.15 K, x2 = 0.3499) of 888.08 ± 0.41 kg/m3, a mass density (318.15 K, x2 = 0.4) of 895.47 ± 0.41 kg/m3 and a mass density (318.15 K, x2 = 0.4501) of 902.89 ± 0.41 kg/m3. It also gave a mass density (318.15 K, x2 = 0.5) of 910.05 ± 0.41 kg/m3, a mass density (318.15 K, x2 = 0.5499) of 917.49 ± 0.41 kg/m3 and a mass density (318.15 K, x2 = 0.6) of 924.87 ± 0.41 kg/m3. It also gave a mass density (318.15 K, x2 = 0.65) of 932.27 ± 0.41 kg/m3, a mass density (318.15 K, x2 = 0.6999) of 939.31 ± 0.41 kg/m3 and a mass density (318.15 K, x2 = 0.75) of 946.57 ± 0.41 kg/m3. It also gave a mass density (318.15 K, x2 = 0.7999) of 953.74 ± 0.41 kg/m3, a mass density (318.15 K, x2 = 0.85) of 960.85 ± 0.41 kg/m3 and a mass density (318.15 K, x2 = 0.8998) of 968.23 ± 0.41 kg/m3. It also gave a mass density (318.15 K, x2 = 0.9499) of 975.03 ± 0.41 kg/m3.
